Key:
[1] = molecular target: T1, GDP-loaded HIS-KRAS(G12D, aa 1-169) (Homo sapiens, UniProt P01116, G12D); experiment: SOS1 catalyzed nucleotide exchange assay (TR-FRET); type: biochemical; conditions: 4 hours at 25° C.
T1 construct: GDP-loaded HIS-KRAS(G12D, aa 1-169)
Method: GDP-loaded HIS-KRAS(G12D, aa 1-169) was pre-incubated with a compound in the presence of 10 nM GDPin a 384-well plate (Greiner) for 15 min, then purified SOS1 ExD(Flag tag, aa 564-1049), BODIPY™ FL GTP (Invitrogen) and MAb (monoclonal antibody) Anti 6HIS-Tb cryptate Gold (Cisbio) were added to the assay wells (Final concentration: 1.5 nM GDP-loaded HIS-KRAS(G12D), 5 nM GDP, 0.5 μM SOS1 ExD, 80 nM BODIPY™ FL GTP, 52.5 ng/mL MAb Anti 6HIS-Tb cryptate Gold) and incubated for 4 hours at 25° C. Wells containing same percent of DMSO served as vehicle control, and wells without KRAS served as low control. TR-FRET signals were read on Tecan Spark multimode microplate reader. The parameters were F486: Excitation 340 nm, Emission 486 nm, Lag time 100 μs, Integration time 200 μs; F515: Excitation 340 nm, Emission 515 nm, Lag time 100 μs, Integration time 200 μs. TR-FRET ratios for each individual wells were calculated by equation: TR-FRET ratio=(Signal F515/Signal F486)*10000. The percent of activation of compounds treated wells were normalized between vehicle control and low control (% Activation=(TR-FRET ratioCompound treated−TR-FRET ratioLow control)/(TR-FRET ratioVehicle control−TR-FRET ratioLow control)*100%). Then the data were analyzed by fitting a 4-parameter logistic model or calculating in Excel to calculate IC50 values.

[2] = molecular target: T2, GppNp-loaded HIS-KRAS(G12D, aa 1-169) and cRAF RBD (Homo sapiens, UniProt P01116, G12D); experiment: GTP-KRAS and cRAF interaction assay (HTRF); type: biochemical; conditions: 2 hours at 25° C.
T2 construct: GppNp-loaded HIS-KRAS(G12D, aa 1-169)
T2 sequence (P01116 1-169 isoform P01116-2 G12D): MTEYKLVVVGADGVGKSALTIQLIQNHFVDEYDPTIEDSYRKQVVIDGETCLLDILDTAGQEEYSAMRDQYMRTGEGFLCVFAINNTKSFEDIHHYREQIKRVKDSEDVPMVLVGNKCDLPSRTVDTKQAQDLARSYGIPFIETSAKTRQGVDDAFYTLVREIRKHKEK
Method: GppNp-loaded HIS-KRAS(G12D, aa 1-169) was pre-incubated with a compound in the presence of 200 μM GTP in a 384-well plate (Greiner) for 15 min, then cRAF RBD(GST tag, aa 50-132, CreativeBioMart), MAb Anti GST-d2 (Cisbio) and MAb Anti 6HIS-Tb cryptate Gold (Cisbio) were added to the assay wells (Final concentration: 2.0 nM GppNp-loaded HIS-KRAS(G12D), 100 μM GTP, 35 nM cRAF RBD, 1 μg/mL MAb Anti GST-d2, 52.5 ng/mL MAb Anti 6HIS-Tb cryptate Gold) and incubated for 2 hours at 25° C. Wells containing same percent of DMSO served as vehicle control, and wells without KRAS served as low control. HTRF signals were read on Tecan Spark multimode microplate reader and HTRF ratios were calculated under manufacturer's instructions. The percent of activation of compounds treated wells were normalized between vehicle control and low control (% Activation=(HTRF ratioCompound treated−HTRF ratioLow control)/(HTRF ratioVehicle control−HTRF ratioLow control)*100%). Then the data were analyzed by fitting a 4-parameter logistic model or calculating in Excel to calculate IC50 values.

[3] = test system: AsPC-1; experiment: Cell growth inhibition assay, AsPC-1 (CellTiter-Glo); type: cell-based; conditions: Homo sapiens, ASPC1, 144 h; AsPC-1 cell viability, 6 days incubation
Method: AsPC-1 cultured in RPMI-1640 medium (Gibco) containing 10% fetal bovine serum (Gibco). Cells in culture medium were plated in 96-well plates at a concentration of 1000 cells/well (100 μL/well) and allowed to attach overnight.
(§1) The next day, compounds were diluted in culture medium and added to the plates. After 6 days incubation in a 37° C./5% CO2 cell incubator, the cell viability was detected by CellTiter-Glo® Luminescent Cell Viability Assay kit (Promega). Luminescent signals were read on Tecan Spark multimode microplate reader and analyzed using a 4-parameter logistic model to calculate IC50 values.

[4] = test system: AGS cells expressing KRAS G12D; experiment: Phospho-ERK1/2(THR202/TYR204) HTRF assay; type: cell-based; conditions: Homo sapiens; Phospho-ERK1/2 in AGS cells, 2 hours incubation
Method: AGS cells expressing KRAS G12D were cultured in F12K medium (Gibco) containing 10% fetal bovine serum (Gibco). The AGS cells in culture medium were seeded in 96-well plates at a concentration of 40,000 cells/well and then put in a 37° C./5% CO2 cell incubator to incubate overnight. The next day, culture medium was removed and the compound diluted in assay medium (F12K, 0.1% FBS) was added in each well. After 2 hours incubation in a 37° C./5% CO2 cell incubator, the assay medium in 96-well plates was removed, then 50 μL of 1× blocking reagent-supplemented lysis buffer (Cisbio) was added and the plates were incubated at 25° C. for 45 min with shaking. 10 μL of cell lysates from the 96-well plates were transferred to a 384-well plate (Greiner) containing 2.5 μL/well HTRF® pre-mixed antibodies (Cisbio 64AERPEH). Incubate 4 hours at 25° C. and then read HTRF signals on Tecan Spark multimode microplate reader. The data were analyzed using a 4-parameter logistic model to calculate IC50 values.

[5] = test system: AGS; experiment: Cell growth inhibition assay, AGS (CellTiter-Glo); type: cell-based; conditions: Homo sapiens, 144 h; AGS cell viability, 6 days incubation
Method: AGS cultured in F12K medium (Gibco) containing 10% fetal bovine serum (Gibco). Cells in culture medium were plated in 96-well plates at a concentration of 500 cells/well (100 μL/well) and allowed to attach overnight.
as §1

T1 sequence (P01116 1-169 isoform P01116-2 G12D): as above

C#Cc1cccc2cc(O)cc(-c3c(F)cc4c(N5CC6CCC(C5)N6)nc(OCC5(CN6CCOC7(CC7)C6)CC5)nc4c3F)c12 (single isomer, unassigned) [Compound 2A]
IC50 [1]: > 0.1 µM
IC50 [2]: > 10 µM

C#Cc1cccc2cc(O)cc(-c3c(F)cc4c(N5CC6CCC(C5)N6)nc(OCC5(CN6CCOC7(CC7)C6)CC5)nc4c3F)c12 (single isomer, unassigned) [Compound 2B]
IC50 [1]: 0.00124 µM
IC50 [3]: 0.0135 µM
IC50 [2]: 0.0413 µM
IC50 [4]: 0.0303 µM
IC50 [5]: 0.000892 µM

C#Cc1cccc2cc(O)cc(-c3c(F)cc4c(N5CC6CCC(C5)N6)nc(OCC5(CN6CCC7(CC6)CC7(F)F)CC5)nc4c3F)c12 (single isomer, unassigned) [Compound 3A]
IC50 [1]: > 0.1 µM
IC50 [2]: 9.08 µM

C#Cc1c(F)ccc2cc(O)cc(-c3c(Cl)cc4c(N5CC6CCC(C5)N6)nc(OCC5(CN6CC7CC6CO7)CC5)nc4c3F)c12 (single isomer, unassigned) [Compound 4A]
IC50 [1]: 0.244 µM
IC50 [2]: 1.57 µM

C#Cc1c(F)ccc2cc(O)cc(-c3c(Cl)cc4c(N5CC6CCC(C5)N6)nc(OCC5(CN6CC7CC6CO7)CC5)nc4c3F)c12 (single isomer, unassigned) [Compound 4B]
IC50 [1]: 0.00031 µM
IC50 [2]: 0.00919 µM

C#Cc1cccc2cc(O)cc(-c3c(F)cc4c(N5CC6CCC(C5)N6)nc(OCC5(CN6CC7CC6CO7)CC5)nc4c3F)c12 (single isomer, unassigned) [Compound 13A]
IC50 [1]: > 0.1 µM
IC50 [2]: > 10 µM
IC50 [4]: 0.271 µM

C#Cc1cccc2cc(O)cc(-c3c(F)cc4c(N5CC6CCC(C5)N6)nc(OCC5(CN6CC7CC6CO7)CC5)nc4c3F)c12 (single isomer, unassigned) [Compound 36A]
IC50 [1]: > 0.1 µM
IC50 [2]: 0.0202 µM

C#Cc1cccc2cc(O)cc(-c3c(F)cc4c(N5CC6CCC(C5)N6)nc(OCC5(CN6CCC6)CC5)nc4c3F)c12 [Compound 1]
IC50 [1]: 0.00541 µM
IC50 [2]: 0.247 µM
IC50 [4]: 0.0583 µM

C#Cc1cccc2cc(O)cc(-c3c(F)cc4c(N5CC6CCC(C5)N6)nc(OCC5(CN6CCOC7(CC7)C6)CC5)nc4c3F)c12 [Compound 2]
IC50 [1]: 0.026 µM
IC50 [2]: 0.228 µM

C#Cc1cccc2cc(O)cc(-c3c(F)cc4c(N5CC6CCC(C5)N6)nc(OCC5(CN6CCC7(CC6)CC7(F)F)CC5)nc4c3F)c12 [Compound 3]
IC50 [1]: 0.0371 µM
IC50 [3]: 0.0228 µM
IC50 [2]: 0.115 µM
IC50 [4]: 0.0955 µM
IC50 [5]: 0.00676 µM

C#Cc1c(F)ccc2cc(O)cc(-c3c(Cl)cc4c(N5CC6CCC(C5)N6)nc(OCC5(CN6C[C@@H]7C[C@H]6CO7)CC5)nc4c3F)c12 [Compound 4]
IC50 [4]: 0.0388 µM

C#Cc1cccc2cc(O)cc(-c3c(F)cc4c(N5CC6CCC(C5)N6)nc(OCC5(CN6CCCC7(C6)CC7(F)F)CC5)nc4c3F)c12 (centres unmarked) [Compound 5]
IC50 [1]: 0.0555 µM
IC50 [3]: 0.0621 µM
IC50 [2]: 0.31 µM
IC50 [5]: 0.021 µM

C#Cc1cccc2cc(O)cc(-c3c(F)cc4c(N5CC6CCC(C5)N6)nc(OCC5(CN6CCOC7(CCC7)C6)CC5)nc4c3F)c12 [Compound 6]
IC50 [1]: 0.0662 µM
IC50 [2]: 0.437 µM

C#Cc1cccc2cc(O)cc(-c3c(F)cc4c(N5CC6CCC(C5)N6)nc(OCC5(CN6CC7CC6CO7)CC5)nc4c3F)c12 (centres unmarked) [Compound 13]
IC50 [1]: 0.012 µM

C#Cc1cccc2cc(O)cc(-c3c(F)cc4c(N5CC6CCC(C5)N6)nc(OCC5(CN6CCc7ccccc7C6)CC5)nc4c3F)c12 [Compound 16]
IC50 [1]: 0.0273 µM

C#Cc1cccc2cc(O)cc(-c3c(F)cc4c(N5CC6CCC(C5)N6)nc(OCC5(CN6CC7(CC(O)C7)C6)CC5)nc4c3F)c12 [Compound 18]
IC50 [1]: 0.000975 µM
IC50 [2]: 0.0778 µM

C#Cc1cccc2cc(O)cc(-c3ccc4c(N5CC6CCC(C5)N6)nc(OCC5(Cc6ccccn6)CC5)nc4c3F)c12 [Compound 23]
IC50 [1]: > 0.1 µM
IC50 [2]: > 10 µM

C#Cc1cccc2cc(O)cc(-c3c(F)cc4c(N5CC6CCC(C5)N6)nc(OCC5(CN6CC(O)C6)CC5)nc4c3F)c12 [Compound 26]
IC50 [1]: 0.00258 µM
IC50 [2]: 0.113 µM
IC50 [4]: 0.0563 µM

C#Cc1cccc2cc(O)cc(-c3c(F)cc4c(N5CC6CCC(C5)N6)nc(OCC5(CN6CC(C)(O)C6)CC5)nc4c3F)c12 [Compound 29]
IC50 [1]: 0.0035 µM
IC50 [2]: 0.0716 µM
IC50 [4]: 0.025 µM

C#Cc1c(F)ccc2cc(O)cc(-c3c(C(C)C)cc4c(N5CC6CCC(C5)N6)nc(OCC5(CN6C[C@@H]7C[C@H]6CO7)CC5)nc4c3F)c12 [Compound 38]
IC50 [1]: 0.00115 µM
IC50 [2]: 0.00582 µM

C#Cc1c(F)ccc2cc(O)cc(-c3c(C(F)(F)F)cc4c(N5CC6CCC(C5)N6)nc(OCC5(CN6C[C@@H]7C[C@H]6CO7)CC5)nc4c3F)c12 [Compound 40]
IC50 [1]: 0.00129 µM
IC50 [2]: 0.00809 µM

C#Cc1c(F)ccc2cc(O)cc(-c3c(C#N)cc4c(N5CC6CCC(C5)N6)nc(OCC5(CN6C[C@@H]7C[C@H]6CO7)CC5)nc4c3F)c12 [Compound 41]
IC50 [1]: 0.00104 µM
IC50 [2]: 0.00718 µM

C#Cc1c(F)ccc2cc(O)cc(-c3c(SC(F)(F)F)cc4c(N5CC6CCC(C5)N6)nc(OCC5(CN6C[C@@H]7C[C@H]6CO7)CC5)nc4c3F)c12 [Compound 42]
IC50 [1]: 0.00097 µM
IC50 [2]: 0.00404 µM

CCc1c(F)ccc2cc(O)cc(-c3c(C(F)(F)F)cc4c(N5CC6CCC(C5)N6)nc(OCC5(CN6C[C@@H]7C[C@H]6CO7)CC5)nc4c3F)c12 [Compound 43]
IC50 [1]: 0.00464 µM
IC50 [2]: 0.436 µM

C#Cc1cccc2cc(O)cc(-c3c(F)cc4c(N5CC6CCC(C5)N6)nc(OCC5(CN6CC7(CCCO7)C6)CC5)nc4c3F)c12 [Compound 44]
IC50 [1]: 0.0357 µM

C#Cc1cccc2cc(O)cc(-c3c(F)cc4c(N5CC6CCC(C5)N6)nc(OCC5(CN6CC7(CC(OC)C7)C6)CC5)nc4c3F)c12 [Compound 49]
IC50 [1]: 0.00395 µM
IC50 [2]: 0.0732 µM
IC50 [4]: 0.0464 µM

C#Cc1cccc2cc(O)cc(-c3c(F)cc4c(N5CC6CCC(C5)N6)nc(OCC5(CN6CCn7cncc7C6)CC5)nc4c3F)c12 [Compound 53]
IC50 [1]: 0.00259 µM
IC50 [2]: 0.818 µM
IC50 [4]: 0.0803 µM

C#Cc1cccc2cc(O)cc(-c3c(F)cc4c(N5CC6CCC(C5)N6)nc(OCC5(CN6C7COCC6C7)CC5)nc4c3F)c12 [Compound 57]
IC50 [1]: 0.00681 µM
IC50 [2]: 0.439 µM
IC50 [4]: 0.0463 µM

C#Cc1cccc2cc(O)cc(-c3c(F)cc4c(N5CC6CCC(C5)N6)nc(OCC5(CN6Cc7ccccc7C6)CC5)nc4c3F)c12 [Compound 58]
IC50 [1]: 0.00204 µM
IC50 [3]: 0.091 µM
IC50 [2]: 0.188 µM
IC50 [5]: 0.034 µM

Source: patent publication US20240025918A1, “KRAS G12D Inhibitors” (Jacobio Pharmaceuticals Co., Ltd, priority 2020, published 2024)
